According to US8771755B2, “Preparation and compositions of highly bioavailable zerovalent sulfur and uses thereof” (Nuevas Alternativas Naturales, S.A.P.I. de C.V., priority 2011, dated 2014):
Where two headings read alike, the source gives them in different places.

Assays:
[1] = Percentage bioactive sulfur contained in hydrogen sulfide prodrugs; type: physicochemical
[2] = test system: pregnant rat uterine contractility; details: in vitro, Sidhu et al. 2001; cited from earlier work
angiogenesis = details: in the drinking water; via increasing VEGF expression; Givvimani et al. 2011; cited from earlier work
[3] = test system: superoxide formation and expression of p47phox (a subunit of NOX); details: Shukla et al., BJU Int. 2009; cited from earlier work
[4] = test system: patients with idiopathic oligoasthenozoospermia; assay: Prospective, randomized, double blind study in idiopathic oligoasthenozoospermia, semen analysis; type: in vivo, human; details: first sample (baseline, before treatment)
Procedure: A prospective, randomized, double blind study evaluated and approved by the Ethics Committee of the Universidad Autónoma de Nuevo León University Hospital (Monterrey, Mexico) with registration number BR09-001 was conducted. The study included patients who attended the Reproductive Biology Clinic of the University Hospital from July 2009 to September 2010 who desired to be pregnant and met the inclusion criteria. Patients between 20 and 45 years of age with a diagnosis of idiopathic oligoasthenozoospermia wishing to participate in the study after signing informed consent were included. The diagnosis of oligoasthenozoospermia was reached by performing two semen analyses on different dates with an interval of three weeks in between. To make the diagnosis, the results of the semen analyses needed to report less than 25% type A sperm motility or less than 50% type A+B sperm motility as detailed in the World Health Organization Laboratory Manual for the Examination of Human Semen and Semen-Cervical Mucus Interaction, 4th ed. New York: Cambridge University Press, 1999. Type A Motility comprised rapid progression; type B motility comprised medium progression; type C mobility comprised slow or clumsy progression; and type D mobility comprised immotile. Oligozoospermia was defined as a concentration of less than 20 million sperm per milliliter, according to the criteria of the World Health Organization. Oligoasthenozoospermia was defined as the presence of oligozoospermia and asthenozoospermia in the same patient. In each semen analysis, morphology was manually assessed using Kruger strict criteria.
Infertile patients with normal findings on semen analysis, patients who were chronic smokers or those who had been taking antioxidants in the last 6 months prior to study entry were excluded. Patients with chronic degenerative diseases such as diabetes or high blood pressure or with hormonal abnormalities were also excluded.
A complete medical history and physical examination was obtained for all patients. All study participants underwent a second semen analysis to confirm the diagnosis after a sexual abstinence of 3 to 5 days. This semen analysis was considered baseline (sample 1). On a second visit this new semen analysis was reviewed to confirm oligoasthenozoospermia and one of the 3 substances to be taken was randomly prescribed for 75 days. The substances given were 1.5 g of hydrogen sulfide prodrug as an antioxidant, 50 mg of resveratrol as an antioxidant, and 1.5 g of microcrystalline cellulose as a placebo.
Randomization of the substance given to each patient was performed by placing in a drawer at random all the containers having exactly the same color, size, and shape with the three separate substances (hydrogen sulfide prodrug, resveratrol, and placebo) without any kind of reference as to the content. […] The attending physician and the patient were unaware of the contents of the container. […] Each patient was asked to take a container at random and the container number was recorded in the patient's medical record. At the end of the study, before statistical analysis, we obtained the relationship between the numbers on the labels and the contents, grouping patients according to the substance. Each patient was given a treatment adherence form (a patient log) in order to count the days of medication and record adverse events, if these occurred, including the type and frequency.
The patients were scheduled one month after starting treatment (third visit) in order to document adverse effects and adherence to treatment.
In the next scheduled consultation (fourth visit), carried out 75 days after starting treatment; adherence was verified and adverse effects were reported. For this visit, the patients presented with 3 to 5 days of sexual abstinence for post-treatment semen analysis (sample 2). […]

[5] = comparison substance; cited from earlier work
[6] = sulfur capable of being converted into hydrogen sulfide in vivo, prior art prodrugs

Compound: C[S+]([O-])CCCCN=C=S (stereo not shown) [Sulforaphane]
- % Bioactive sulfur (w/w) [1, 6]: 18 % (w/w)

Compound: COc1ccc2c(c1)c(CC(=O)Oc1ccc(-c3cc(=S)ss3)cc1)c(C)n2C(=O)c1ccc(Cl)cc1 [ATB 343]
- % Bioactive sulfur (w/w) [1]: 5.6 % (w/w)

Compound: [Na+].[SH-] [NaHS (anhydrous), sodium hydrogen sulfide]
- uterine spontaneous contractility [2]: significant dose-dependent decreases
- angiogenesis (angiogenesis): augmented angiogenesis

Compound: COc1ccc2cc(C(C)C(=O)Oc3ccc(C(N)=S)cc3)ccc2c1 (stereo not shown) [ATB 346]
- % Bioactive sulfur (w/w) [1, 6]: 8.8 % (w/w)

Compound: CCCc1nn(C)c2c(=O)[nH]c(-c3cc(S(=O)(=O)N4CCN(CC(=O)Oc5ccc(-c6cc(=S)ss6)cc5)CC4)ccc3OCC)nc12 [ACS 6]
- % Bioactive sulfur (w/w) [1, 6]: 3.5 % (w/w)
- inhibition of expression of p47phox [3]: more than sildenafil citrate
- inhibition of superoxide formation [3]: more than sildenafil citrate

Compound: Oc1ccc(C=Cc2cc(O)cc(O)c2)cc1 [Resveratrol, resveratrol]
- MFR (Mobile Forms Recovery, post sperm capacitation) [4]: 0.40 × 10^6
- mean sperm concentration [4]: 10.9 million per milliliter
- mobile forms recovered (MFR) post-sperm capacitation [4]: 0.40 million
- Motility A + B (%) ([4]; group mean): 14.43%
- Normal morphology (%) ([4]; group mean): 32.06%
- Sperm concentration ([4]; group mean): 10.9 × 10^6

Compound: O=C(CCC/C=C\C[C@@H]1[C@@H](CC[C@@H](O)CCc2ccccc2)[C@H](O)C[C@@H]1O)Oc1ccc(-c2cc(=S)ss2)cc1 [ACS 67]
- % Bioactive sulfur (w/w) [1]: 5.3 % (w/w)

Compound: [Na+].[Na+].[S-2] [Na2S (anhydrous), Na2S]
- % Bioactive sulfur (w/w) [1]: 41 % (w/w)

Compound: C1COCCN1.COc1ccc(P(=S)(S)N2CCOCC2)cc1 (stereo not shown) [GYY 4137]
- % Bioactive sulfur (w/w) [1]: 8.5 % (w/w)

Compound: O=C(Cc1ccccc1Nc1c(Cl)cccc1Cl)Oc1ccc(-c2cc(=S)ss2)cc1 [ACS 15]
- % Bioactive sulfur (w/w) [1]: 6.3 % (w/w)

Compound: [S] [Pure alpha- or beta-elemental sulfur, elemental sulfur]
- solubility in carbon disulfide [5]: completely soluble
